Laboratory results reported in patent US10045951B2, “Flaxseed lignan complex and its use thereof” (priority 2007, dated 2018).
Where a SMILES comes first, the peptide text is derived from it. The star is where a group is joined. Cbz = O=C(OCc1ccccc1)*

Legend:
LKR cells = test: MTS cell proliferation assay with proteasomal inhibitor; assay type: cell-based, mouse; conditions: one day post incubation
Protocol: FIG. 35: Cancer cell proliferation is inhibited by a known pharmacological proteasome inhibitor. LKR cells were incubated with MG 132, a known pharmacological proteasomal inhibitor and cell proliferation was measured using the MTS assay at one day post incubation. There was a dose dependent decrease in cell proliferation with increasing doses of MG 132.
LKR cells derived from an explant of a pulmonary tumor from an activated K-rasG12D mutant mouse were incubated with differing concentrations of MG 132, a known pharmacological proteasomal inhibitor to assess for cell proliferation using the MTS assay.

HO-1 = HO-1 immunoblotting in pulmonary microvascular endothelial cells (PMVEC); assay type: cell-based, mouse; conditions: 10 μM; 1,2,4,6,8 and 10 hours
Protocol: For mechanistic studies, there is a need to establish whether purified lignans (in appropriate, “pharmacologically achievable” concentrations) have similar effects in cell culture as lignan complex diets have in animals. HO-1 levels were thus evaluated by immunoblotting in primary cultures of pulmonary microvascular endothelial cells (PMVEC) isolated from mouse lungs. PMVEC were incubated with the lignan enterodiole (ED) in micromolar concentrations (10 µM) similar to that seen in mouse plasma levels. Cells were incubated with ED for 1,2,4,6,8 and 10 hours.

proteasomal activity = test: Proteasomal inhibition in GFPu-1 cells (anti-GFP immunoblotting); assay type: cell-based, human; conditions: for amount of proteasomal inhibition as compared to Lactacystin and MG 132 / proteasomal inhibition compared to untreated cells (GFP expression): 16 hours; for proteasomal inhibition compared to untreated cells (GFP expression): EL 1 μM to 100 μM
Protocol: FIG. 36: Proteasomal inhibition with EL and ED as compared to known pharmacologic inhibitors Lactacystin and MG 132. GFPu-1 kidney epithelial cells were treated for 16 hours with EL and ED at differing concentrations. Proteasomal inhibition was detected by Western blotting using anti-GFP antibody with increased proteasomal inhibition expressed as accumulation of GFP. Representative Western blots are shown with β actin reference (Top panels). Densitometry was performed with β actin normalization, expressed as fold over untreated control±SEM, n=2-6 (Bottom panel). Dotted line represents control expression of GFP. *p<0.005 vs. untreated, **p<0.01 vs. untreated.
GFP^u-1 cells were used to investigate the impact of one of the flaxseed lignans, enterodiole (ED) on proteasomal activity. GFP^u-1 is an human kidney epithelial (HEK)-derived, stably transfected cell line expressing a short degron (CL1) tagged to green fluorescent protein (GFP) as described […].
Using an in vitro means of quantifying proteasomal inhibition with GFPu-1 cells, differing concentrations of the FS lignans EL and ED were compared with known pharmacologic proteasomal inhibitors MG 132 and Lactacystin, incubated for 16 hours prior to processing. Western blotting was performed on whole […] cell lysates using anti-GFP antibodies to quantify the amount of GFP expressed as a marker of the amount of proteasomal inhibition (FIG. 36, Top panels).

LKR = test: MTS cell proliferation assay with FS lignans: LKR; assay type: cell-based; conditions: 10 μM for 16 hours
Protocol: (§1) FIG. 37: FS lignans EL and ED, and their precursor SDG, inhibit cell proliferation in tumor cell lines. Tumor cell lines (LKR, TC-1, and LLC) were incubated with 10 μM or 25 μM of SDG, EL, or ED for 16 hours and processed for MTS assay to measure cell proliferation. The % inhibition of cell growth compared to untreated (no lignan) cell lines was calculated. Bars represent means±SEM. n=3 readings per group.
(§2) Cell proliferation was assessed at this time (time 0), and 24 and 48 hours later.

LLC = test: MTS cell proliferation assay with FS lignans: LLC; assay type: cell-based; conditions: 10 μM for 16 hours
Protocol: as §1, §2

TC-1 = test: MTS cell proliferation assay with FS lignans: TC-1; assay type: cell-based; conditions: 10 μM for 16 hours
Protocol: as §1, §2

[1] = system: alveolar epithelial cells (A549); test: H2O2-induced cell death of alveolar epithelial cells (LDH release); assay type: cell-based; conditions: 10, 50, 100, 200, 500 uM; 10 mM H2O2 for 1-6 hours
Protocol: In addition, using the same assay system to detect cell death, LDH release, an evaluation of the efficacy of the lignan enterodiole, ED, to protect alveolar epithelial cells (A549) from oxidant-induced cell death was made. In these experiments, cells were pre-incubated withincreasing concentrations of ED (10, 50, 100, 200, 500 uM) and challenged with hydrogen peroxide (10 mM H2O2) for 1-6 hours. […] (FIG. 20).

Nrf2 = test: Nuclear Nrf2 levels in PMVEC; assay type: cell-based, mouse; conditions: 10 μM
Description: Nrf2 was detected with our own rabbit polyclonal Antibody (Clone MCS-1a).

ROS generation in PMVEC = test: ROS generation (H2DCF) by PMVEC in simulated I/R flow chamber; assay type: cell-based, mouse; conditions: 5 μM for 5 h prior to I/R
Protocol: Mouse pulmonary endothelial cells (PMVEC) were grown on coverslips and placed in a Warner chamber and perfused with culture medium for 24 h at a flow rate of 10 dyn/cm^2. Cells were incubated with the Lignan ED (5 μM) for 5 h prior to I/R loaded with H2DCF to monitor ROS immediately before the experiment. I/R in this chamber is simulated by abrupt cessation of perfusate flow and its reinstatement through the chamber 5 minutes later. The images are in pseudocolor with intensity shown on the side bar.

[2] = Lignan content in murine plasma (LC/MS/MS); assay type: in vivo, mice; conditions: oral, 10 % FS (flaxseed) in diet, FS-fed (10% FS) mouse groups, 4 months post-irradiation, read-out: circulating plasma level
Protocol: Circulating plasma levels of the flaxseed lignans ED and EL at time of sacrifice (4 months' post-XRT) were determined by liquid chromatography tandem mass spectrometry (LC/MS/MS) using commercially available standards in 95% purity (Chromadex, Inc., Santa Ana, Calif.) shown in FIG. 39. Plasma flaxseed lignan levels were evaluated in 3 randomly selected mice per group (irradiated mice; diet initiated at −3, 0, +2, +4, +6 weeks of radiation exposure).
Detection of flaxseed metabolites in the circulation using analytical methods was used to confirm that mice were feeding on the flaxseed-supplemented diet to reach physiologically relevant levels. Mice were maintained on control (0% FS) or treatment (10% FS) diets given ad libitum for either three weeks prior to XRT and for the entire duration of the experiment (4 months), or started on the day of XRT or 2,4,6 weeks post XRT and continued for 4 months (see scheme on FIG. 38). Plasma evaluation for lignan detection was done at 16 weeks post XRT.

[3] = system: streptozotosin-induced Diabetes mellitus; conditions: SDG-treated animals; cited from earlier work
PMVEC = test: tBHQ-induced cell death of PMVEC (LDH release); assay type: cell-based, mouse; conditions: pretreatment 50 μM; 10 μM tBHQ
Protocol: Given the in vivo data hereinabove, showing protection of lungs from oxidative injury after flaxseed feeding, a confirmation of similar protection of cells in vitro was desired. Relatively high doses of the electrophile tert-butylhydroquinone (tBHQ) were used to oxidatively stress the cells. […] However, pretreatment of cells with 50 µM of the lignan Enterolactone (EL) was sufficient to protect cells up to 50% from tert-butylhydroquinone (tBHQ)-induced cell death (FIG. 19).

concentration at 16 weeks post XRT [2]	SMILES	cell proliferation inhibition (MTS) (LKR cells)	HO-1 levels (HO-1)	amount of proteasomal inhibition as compared to Lactacystin and MG 132 (proteasomal activity)	proteasomal inhibition compared to untreated cells (GFP expression) (proteasomal activity)	GFP levels (proteasomal inhibition) (proteasomal activity; Example 15)	cancer cell proliferation rate (MTS) (LKR)	cancer cell proliferation rate (MTS) (LLC)	cancer cell proliferation rate (MTS) (TC-1)	protection from oxidant-induced cell death (LDH release) [1]	nuclear Nrf2 levels (Nrf2)	ROS generation (ROS generation in PMVEC)	diabetes [3]	serum and pancreatic lipid peroxidation [3]	protection from tBHQ-induced cell death (PMVEC)
–	CC(C)C[C@@H](C=O)NC(=O)[C@H](CC(C)C)NC(=O)[C@H](CC(C)C)NC(=O)OCc1ccccc1 [MG 132] (Cbz-Leu-Leu-Leu-aldehyde)	clear dose dependent response	–	–	–	–	–	–	–	–	–	–	–	–	–
14 to 405 ng/mL	OC[C@H](Cc1cccc(O)c1)[C@H](CO)Cc1cccc(O)c1 [ED, enterodiol]	–	robust, time-dependent induction	comparable to only Lactacystin, not MG 132	significant amount of proteasomal inhibition	increased GFP levels in a dose-dependent fashion	significant decrease	significant decrease	significant decrease	significantly protected	time-dependent increase	near complete abrogation	–	–	–
–	COc1cc(C[C@@H](CO[C@@H]2O[C@H](CO)[C@@H](O)[C@H](O)[C@H]2O)[C@H](CO[C@@H]2O[C@H](CO)[C@@H](O)[C@H](O)[C@H]2O)Cc2ccc(O)c(OC)c2)ccc1O [SDG, secoisolariciresinol diglucoside]	–	–	–	–	–	significant decrease	significant decrease	significant decrease	–	–	–	prevention of diabetes	decrease	–
103 to 325 ng/mL	O=C1OC[C@H](Cc2cccc(O)c2)[C@H]1Cc1cccc(O)c1 [EL, enterolactone]	–	–	no significant difference	significant increase	–	significant decrease	significant decrease	significant decrease	–	–	–	–	–	up to 50%
